Values of other authors as cited in patent US20130131091A1, “HARMFUL ORGANISM CONTROL AGENT” (priority 2010, published 2013).

How the values were obtained:
[1] = test system: larvae of Helicoverpa zea
[2] = test system: Plutella xylostella L larvae
[3] = test system: Tenebrio molitor L

Measured: insecticidal activity

CC(=O)OCC1(C)C(OC(C)=O)CCC2(C)C1CC(OC(C)=O)C1(C)Oc3cc(-c4cccnc4)oc(=O)c3C(O)C21 (stereo not drawn) [pyripyropene A]
insecticidal activity: all assays above
